The values below come from paper PMC6162791, “Phoneutria nigriventer Spider Toxin PnTx2-1 (δ-Ctenitoxin-Pn1a) Is a Modulator of Sodium Channel Gating” (Toxins, 2018).

Series [1] concerns the target T1, NaV1.5 (Homo sapiens, UniProt Q14524). The series is classed as cell-based, mammalian.
For series [2], the target named is T2, NaV1.8 (Homo sapiens, UniProt Q9Y5Y9). The series can be described thus: Two-electrode voltage clamp in Xenopus oocytes, NaV1.8 modulation / concentration-response. The series is classed as cell-based, mammalian. The settings on record: NaV1.8, 1 μM. A general note: Two-electrode voltage clamp is typically applied to oocytes expressing channels or transporters.
T2 sequence (Q9Y5Y9 whole entry): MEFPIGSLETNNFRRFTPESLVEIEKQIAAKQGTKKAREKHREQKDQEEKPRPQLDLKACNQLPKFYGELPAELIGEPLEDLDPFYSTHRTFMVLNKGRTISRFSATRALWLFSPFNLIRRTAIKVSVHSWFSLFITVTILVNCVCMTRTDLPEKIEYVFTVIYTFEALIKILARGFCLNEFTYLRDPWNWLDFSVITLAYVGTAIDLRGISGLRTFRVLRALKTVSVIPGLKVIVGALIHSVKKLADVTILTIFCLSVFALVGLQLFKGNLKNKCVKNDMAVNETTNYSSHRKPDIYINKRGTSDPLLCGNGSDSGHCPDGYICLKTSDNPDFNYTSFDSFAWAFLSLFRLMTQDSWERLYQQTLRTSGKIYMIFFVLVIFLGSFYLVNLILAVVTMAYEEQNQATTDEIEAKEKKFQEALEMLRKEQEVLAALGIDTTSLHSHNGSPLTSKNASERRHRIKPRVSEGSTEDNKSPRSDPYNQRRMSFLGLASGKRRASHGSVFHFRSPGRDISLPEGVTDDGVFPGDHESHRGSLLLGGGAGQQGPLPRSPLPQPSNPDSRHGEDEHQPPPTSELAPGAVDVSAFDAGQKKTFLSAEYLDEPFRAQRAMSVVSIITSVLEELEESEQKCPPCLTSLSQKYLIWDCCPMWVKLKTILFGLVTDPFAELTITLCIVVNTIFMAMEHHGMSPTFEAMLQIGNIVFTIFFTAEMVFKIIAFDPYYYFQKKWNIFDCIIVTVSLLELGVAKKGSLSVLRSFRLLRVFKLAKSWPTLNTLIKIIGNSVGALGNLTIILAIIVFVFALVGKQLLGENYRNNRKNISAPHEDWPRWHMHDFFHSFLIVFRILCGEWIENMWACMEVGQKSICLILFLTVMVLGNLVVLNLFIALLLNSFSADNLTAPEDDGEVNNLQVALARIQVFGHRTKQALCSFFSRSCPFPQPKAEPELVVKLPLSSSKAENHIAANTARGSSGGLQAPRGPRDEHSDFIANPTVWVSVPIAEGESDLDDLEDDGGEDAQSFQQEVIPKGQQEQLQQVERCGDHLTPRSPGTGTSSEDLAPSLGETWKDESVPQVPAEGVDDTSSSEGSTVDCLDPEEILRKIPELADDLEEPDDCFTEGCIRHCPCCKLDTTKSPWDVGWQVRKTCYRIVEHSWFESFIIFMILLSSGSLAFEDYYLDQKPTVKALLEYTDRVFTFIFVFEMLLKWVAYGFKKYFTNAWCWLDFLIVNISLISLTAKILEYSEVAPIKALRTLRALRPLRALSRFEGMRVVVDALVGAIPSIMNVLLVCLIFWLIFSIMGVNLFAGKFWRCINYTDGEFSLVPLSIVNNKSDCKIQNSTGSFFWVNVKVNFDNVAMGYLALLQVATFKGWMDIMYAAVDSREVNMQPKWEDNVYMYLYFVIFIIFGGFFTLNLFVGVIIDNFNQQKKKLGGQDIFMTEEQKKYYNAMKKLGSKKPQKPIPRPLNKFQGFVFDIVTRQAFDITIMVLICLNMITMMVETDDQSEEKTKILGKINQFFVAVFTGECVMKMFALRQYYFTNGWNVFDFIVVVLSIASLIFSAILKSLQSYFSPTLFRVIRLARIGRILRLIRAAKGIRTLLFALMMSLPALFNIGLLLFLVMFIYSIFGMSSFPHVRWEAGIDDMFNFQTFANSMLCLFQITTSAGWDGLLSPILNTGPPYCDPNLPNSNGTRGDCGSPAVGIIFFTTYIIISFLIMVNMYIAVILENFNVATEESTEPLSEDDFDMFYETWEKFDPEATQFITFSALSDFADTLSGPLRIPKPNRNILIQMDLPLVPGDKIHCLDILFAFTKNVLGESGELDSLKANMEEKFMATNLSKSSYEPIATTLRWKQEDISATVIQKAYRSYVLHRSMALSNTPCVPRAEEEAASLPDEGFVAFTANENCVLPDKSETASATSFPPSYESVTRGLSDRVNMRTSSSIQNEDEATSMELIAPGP

Series [3] deals with NaV1.6. Put plainly: Two-electrode voltage clamp in Xenopus oocytes, NaV1.6 modulation. In kind it is cell-based, mammalian.
Series [4] has as its system BgNaV1. The series can be described thus: Voltage dependence of activation and steady-state inactivation, BgNaV1. In kind it is cell-based, Blattella germanica.
For series [5], the target named is T2, NaV1.8. The series can be described thus: Voltage dependence of activation and steady-state inactivation, NaV1.8. In kind it is cell-based, mammalian.
The test system of series [6] is BgNaV1. The series can be described thus: Recovery from fast inactivation, BgNaV1. In kind it is cell-based, Blattella germanica. The settings on record: BgNaV1, 1 µM.
For series [7], the system named is mice. The following applies: cited from earlier work. The source says:
Spiders can be considered one of the most successful venomous animals ever to inhabit the planet with over 47,000 species characterized to date. Despite this diversity, no more than 100 spider species have had their venom investigated. With over ten million estimated biologically active peptides in spider venoms, this means that less than 0.01% of spider peptides have been studied, making spider venom an untapped treasure of biologically active compounds with promising discoveries in drug and bioinsecticide development. Phoneutria nigriventer are very ...

Series [8] deals with NaV channels. Put plainly: NaV channel panel in Xenopus oocytes (ion selectivity, species selectivity). The series is classed as cell-based. The settings on record: presence of toxin, ion selectivity not altered.
In series [9] the test system is VdNaV1. Put plainly: Two-electrode voltage clamp in Xenopus oocytes, VdNaV1 modulation / concentration-response. In kind it is cell-based, Varroa destructor.
For series [10], the system named is BgNaV1. Put plainly: State-dependence (toxin incubation without depolarizing pulses), BgNaV1. The series is classed as cell-based, Blattella germanica. The settings on record: BgNaV1, 1 µM.
Series [11] concerns the target T1, NaV1.5. The series can be described thus: Two-electrode voltage clamp in Xenopus oocytes, NaV1.5 modulation / concentration-response. The series is classed as cell-based, mammalian. The settings on record: NaV1.5, 1 µM.
Series [12] has as its target T3, NaV1.1 (Homo sapiens, UniProt P35498). Put plainly: Two-electrode voltage clamp in Xenopus oocytes, NaV1.1 modulation / concentration-response. The series is classed as cell-based, mammalian. The settings on record: NaV1.1, 1 µM.
Series [13] concerns NaV1.2. The series can be described thus: Two-electrode voltage clamp in Xenopus oocytes, NaV1.2 modulation. The series is classed as cell-based, mammalian.
Series [14] addresses T3, NaV1.1. Put plainly: Voltage dependence of activation and steady-state inactivation, NaV1.1. The settings on record: NaV1.1, 1 µM. In kind it is cell-based, mammalian.
In series [15] the target is T1, NaV1.5. The series can be described thus: Current-voltage relationship, activation and steady-state inactivation, NaV1.5. In kind it is cell-based, mammalian.
In series [16] the target is T1, NaV1.5. The series can be described thus: Recovery from inactivation, NaV1.5. In kind it is cell-based, mammalian. The following applies: NaV1.5, 1 µM.
Series [17] relates to NaV1.3. Put plainly: Two-electrode voltage clamp in Xenopus oocytes, NaV1.3 modulation. The series is classed as cell-based, mammalian.
For series [18], the system named is BgNaV1. Put plainly: Two-electrode voltage clamp in Xenopus oocytes, BgNaV1 modulation / concentration-response. The series is classed as cell-based, Blattella germanica.
The test system of series [19] is NaV1.4. The series can be described thus: Two-electrode voltage clamp in Xenopus oocytes, NaV1.4 modulation. In kind it is cell-based, mammalian.
Series [20] concerns PnTx2-6 binding site. The settings on record: ref [14]; cited from earlier work. The text has this: PnTx2-1 shares the highest sequence identity with PnTx2-5 and PnTx2-6, which are also isolated from the Phoneutria nigriventer venom fraction 2 [13]. PnTx2-5 and PnTx2-6 are the best-characterized toxins from the PhTx2 venom fraction. These two toxins share 90% sequence identity, with only five amino acid residues different (Figure 1). […] Both peptides modulate sodium chann ...

Bridge positions count the residues as written; N and C are the ends. Ends that are not written are not given here.

T1 sequence (Q14524 whole entry, looked up): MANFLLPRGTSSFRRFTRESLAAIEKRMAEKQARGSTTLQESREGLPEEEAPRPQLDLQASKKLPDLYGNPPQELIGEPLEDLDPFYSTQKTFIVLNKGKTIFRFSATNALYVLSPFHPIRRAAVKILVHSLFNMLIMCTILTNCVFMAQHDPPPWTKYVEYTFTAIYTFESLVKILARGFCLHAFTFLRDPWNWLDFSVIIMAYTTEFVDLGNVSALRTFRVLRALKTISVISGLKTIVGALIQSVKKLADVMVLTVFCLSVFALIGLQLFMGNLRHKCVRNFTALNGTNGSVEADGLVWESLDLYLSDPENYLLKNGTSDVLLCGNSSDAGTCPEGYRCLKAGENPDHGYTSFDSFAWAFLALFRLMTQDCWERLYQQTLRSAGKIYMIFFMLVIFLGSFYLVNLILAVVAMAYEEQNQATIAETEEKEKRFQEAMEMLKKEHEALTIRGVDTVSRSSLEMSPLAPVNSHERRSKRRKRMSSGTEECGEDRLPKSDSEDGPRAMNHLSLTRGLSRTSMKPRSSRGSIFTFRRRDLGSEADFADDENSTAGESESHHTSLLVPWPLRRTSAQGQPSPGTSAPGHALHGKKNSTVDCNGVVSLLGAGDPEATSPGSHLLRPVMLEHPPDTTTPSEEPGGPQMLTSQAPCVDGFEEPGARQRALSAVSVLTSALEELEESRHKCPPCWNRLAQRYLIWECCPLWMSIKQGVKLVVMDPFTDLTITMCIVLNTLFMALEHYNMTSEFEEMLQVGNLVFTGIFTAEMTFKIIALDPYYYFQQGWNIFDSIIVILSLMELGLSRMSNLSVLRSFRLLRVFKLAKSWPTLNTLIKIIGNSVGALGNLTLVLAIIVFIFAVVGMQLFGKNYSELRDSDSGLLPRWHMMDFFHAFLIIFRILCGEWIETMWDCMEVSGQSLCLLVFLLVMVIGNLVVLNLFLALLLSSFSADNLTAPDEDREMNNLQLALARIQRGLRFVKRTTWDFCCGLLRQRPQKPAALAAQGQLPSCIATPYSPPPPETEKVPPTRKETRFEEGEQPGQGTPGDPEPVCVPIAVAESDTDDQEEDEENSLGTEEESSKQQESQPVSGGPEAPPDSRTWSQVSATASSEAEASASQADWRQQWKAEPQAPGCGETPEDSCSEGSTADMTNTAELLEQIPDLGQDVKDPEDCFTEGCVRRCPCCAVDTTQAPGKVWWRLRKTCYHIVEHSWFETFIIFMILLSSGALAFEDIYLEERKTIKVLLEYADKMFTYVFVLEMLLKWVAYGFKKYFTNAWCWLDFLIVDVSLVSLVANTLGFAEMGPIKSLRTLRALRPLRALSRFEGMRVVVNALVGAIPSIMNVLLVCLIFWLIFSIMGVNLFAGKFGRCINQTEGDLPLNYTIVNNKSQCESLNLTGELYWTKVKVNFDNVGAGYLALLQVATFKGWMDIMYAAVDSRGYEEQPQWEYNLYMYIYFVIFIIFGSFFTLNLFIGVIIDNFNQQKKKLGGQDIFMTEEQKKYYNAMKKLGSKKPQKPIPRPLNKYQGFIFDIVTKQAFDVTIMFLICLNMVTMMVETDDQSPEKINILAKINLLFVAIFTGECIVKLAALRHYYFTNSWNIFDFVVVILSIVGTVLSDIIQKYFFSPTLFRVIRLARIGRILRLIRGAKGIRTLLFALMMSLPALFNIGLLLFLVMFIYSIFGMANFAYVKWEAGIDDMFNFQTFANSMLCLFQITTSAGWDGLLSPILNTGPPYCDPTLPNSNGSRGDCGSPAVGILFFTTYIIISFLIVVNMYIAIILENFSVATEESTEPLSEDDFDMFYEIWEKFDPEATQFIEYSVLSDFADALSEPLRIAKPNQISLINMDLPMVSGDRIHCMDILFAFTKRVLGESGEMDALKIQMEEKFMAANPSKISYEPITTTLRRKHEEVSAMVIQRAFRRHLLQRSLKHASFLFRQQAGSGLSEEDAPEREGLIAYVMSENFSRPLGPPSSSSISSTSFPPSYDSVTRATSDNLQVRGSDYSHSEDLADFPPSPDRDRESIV

As to `NC1=N[C@H](O)[C@H]2[C@H]3O[C@]4(O)O[C@@H]([C@@H](O)[C@@]2(N1)[C@@H]4O)[C@]3(O)CO` [tetrodotoxin (TTX), tetrodotoxin, reference compound], the “decrease of the sodium current peak amplitude” value in series [1] is listed as 50%.

The EC50 is the concentration at which the effect is half-maximal. In the case of “ATCAGQDKPCKETCDCCGERGECVCALSYEGKYRCICRQGNFLIAWHKLASCK (disulfide 3-17, 10-23, 14-52, 16-37, 25-35) [PnTx2-1]”, the effect on inactivation result in series [2] is “slowed the inactivation”; in series [9] (VdNaV1, 1 μM), “profound effect on the inactivation”; in [11], “slowed the inactivation”; in series [12] it was “slowed the inactivation”; in series [18] (BgNaV1, 1 µM), “completely inhibited inactivation of BgNaV1 channels, resulting in sustained non-inactivating currents”. Besides, the effect on channel result in series [3] (NaV1.6, 1 μM) was “not affected”; in [13] (NaV1.2, 1 μM), “not affected”; in series [17] (NaV1.3, 1 μM), “not affected”; in [19] (NaV1.4, 1 μM), “not affected”. For the same compound, the activity on channel entry is reported as “no activity” in [3] (NaV1.6, up to 5 µM, data not shown); “no activity” in series [13] (NaV1.2, up to 5 µM, data not shown); “no activity” in series [17] (NaV1.3, up to 5 µM, data not shown); “no activity” in [19] (NaV1.4, up to 5 µM, data not shown). For the same compound, the “binding at neurotoxin site 1” value in series [1] is reported as “does not bind at site 1”. Moreover, the “effect on peak amplitude after TTX” value in series [1] was “additional reduction of the peak amplitude”. The “completeness of steady-state inactivation” value in [4] (BgNaV1, 1 µM) is listed as “steady-state inactivation became incomplete after toxin addition”. In addition, in [4] (BgNaV1, 1 µM), the “shift of activation midpoint and steady-state inactivation” value was “A shift in the midpoint of activation and in the voltage dependence of steady-state inactivation”. Besides, the V1/2 of activation in series [4] (BgNaV1, 1 µM toxin, control −38.1 ± 0.1, mean ± SEM, n ≥ 3) was −45.8 ± 0.3 mV; in series [5] (NaV1.8, 1 µM toxin, control −11.5 ± 0.1, mean ± SEM, n ≥ 3) it was −11.4 ± 0.1 mV; in [15] (NaV1.5, 1 µM toxin, control −53.1 ± 0.1, mean ± SEM, n ≥ 3), −45.3 ± 0.1 mV. Moreover, the “non-inactivating current component of steady-state inactivation” value in [4] (BgNaV1, 1 µM, mean ± SEM, n ≥ 3) stood at 62.3 ± 3.2%. For the same compound, the “modulation of gating kinetics” value in [5] (NaV1.8, 1 μM) is “No relevant modulation of the gating kinetics”. Moreover, the “recovery from fast inactivation” value in series [6] is listed as “does not influence the recovery from fast inactivation”. Besides, in series [7] (injected, ref [12]), the signs after injection entry is “pruritus, lacrimation, increased salivation, sweating and agitation followed by spastic paralysis of the limbs”. Further, the “toxicity after intracerebral injection” value in [7] (intracerebral (i.c.), among the nine PhTx2 peptides, ref [13]) is “higher toxicity”. For the same compound, in series [8], the reversal potential entry is listed as “No significant change in the reversal potential”. Besides, the EC50 in series [9] (VdNaV1, modulation (current at 30 ms / control peak), Hill fit, Xenopus oocytes, ND96 pH 7.5, 18–22 °C, holding −90 mV, mean ± SEM, n ≥ 3) stood at 102 ± 14.7 nM; in [18] (BgNaV1, modulation (current at 30 ms / control peak), Hill fit, Xenopus oocytes, ND96 pH 7.5, 18–22 °C, holding −90 mV, mean ± SEM, n ≥ 3), 91.9 ± 17 nM. Besides, the “slowing of inactivation after closed-state incubation” value in series [10] (2 min at −90 mV without depolarizing pulses, then pulse to 0 mV) is “significant slowing down of inactivation”. In series [10] (closed state), the toxin interaction state entry is on record as “toxin interaction with the channel in the closed state”. In addition, the “shift of midpoint of activation” value is “the midpoint of activation shifted towards more depolarized potentials” in series [14] and “the midpoint of activation shifted towards more depolarized potentials” in series [15] (NaV1.5, 1 µM). In addition, the “shift of steady-state inactivation curve” value in series [14] is recorded as “the steady-state inactivation curves shifted towards more hyperpolarized membrane potentials”; in series [15] (NaV1.5, 1 µM) it was “the steady-state inactivation curves shifted towards more hyperpolarized membrane potentials”. Besides, the “window of open probability” value in [14] is on record as “increased window of open probability”; in series [15] (NaV1.5, 1 µM), “increased window of open probability”. In series [15] (NaV1.5, 1 µM toxin, control −78.4 ± 0.2, mean ± SEM, n ≥ 3), the “V1/2 of steady-state inactivation” value is −87.5 ± 0.7 mV. Further, the “effect on sodium peak current” value in series [15] (NaV1.5, Figure 2E, Figure 3B and Figure 5A) was “inhibition of the sodium peak current”. In series [16], the “recovery from inactivation” value is given as “strongly enhanced the recovery from inactivation”. Further, the “recovery from inactivation, τ” value in [16] (control τ = 50.2 ± 3.0 ms, mean ± SEM, n ≥ 3) was 22.8 ± 3.2 ms.

As for “CssIV: β-scorpion toxin CssIV (from Centruroides suffusus suffusus)”, in series [20], the “competition with PnTx2-6” value is “does not compete with PnTx2-6”.
